{"source": "patent US5284853A", "about": "“Angiotensin II receptor blocking 2,3,6 substituted quinazolinones” (American Cyanamid Company, priority 1993, dated 1994)", "key": {"[1]": {"tested_on": "Angiotensin II (AII) vasopressor response", "test": "AII Challenge: antagonism of the angiotensin II vasopressor response in conscious SHR", "format": "in vivo, Spontaneously hypertensive rats (Male okamoto-Aoki SHR)", "conditions": "10 mg/kg I.V.; for Average Change / Inhibition: n = 2; for Change / Control Before AII / Response After AII: per rat", "excerpt": "[…] Conscious Male okamoto-Aoki SHR, 16-20 weeks old, weighing approximately 330 g are purchased from Charles River Labs (Wilmington, MA). Conscious rats are restrained in a supine position with elastic tape. The area at the base of the tail is locally anesthetized by subcutaneous infiltration with 2% procaine. […] The cannula is secured, heparinized (1,000 I.U./ml), sealed and the wound is closed. The animals are placed in plastic restraining cages in an upright position. The cannula is attached to a Statham P23Db pressure transducer, and pulsatile blood pressure is recorded to 10-15 minutes with a Gould Brush recorder. (Chan et al., (Drug Development Res., 18:75-94, 1989). […] Co., St. […] […] […] […] […] A compound is considered active if at 30 mg/kg i.v. it antagonized at least 50% of the response."}, "Angiotensin II Receptor": {"molecular_target": "T1, Angiotensin II Receptor (Bos taurus, UniProt P25104)", "T1 construct": "The brownish tissue forming the adrenal cortex is scraped off and finely minced with scissors before homogenization; tissue local slaughter house (Maxwell-Cohen); host or cells: beef adrenal cortex, microsomal membranes (100,000×g pellet)", "T1 sequence (P25104 1-359)": "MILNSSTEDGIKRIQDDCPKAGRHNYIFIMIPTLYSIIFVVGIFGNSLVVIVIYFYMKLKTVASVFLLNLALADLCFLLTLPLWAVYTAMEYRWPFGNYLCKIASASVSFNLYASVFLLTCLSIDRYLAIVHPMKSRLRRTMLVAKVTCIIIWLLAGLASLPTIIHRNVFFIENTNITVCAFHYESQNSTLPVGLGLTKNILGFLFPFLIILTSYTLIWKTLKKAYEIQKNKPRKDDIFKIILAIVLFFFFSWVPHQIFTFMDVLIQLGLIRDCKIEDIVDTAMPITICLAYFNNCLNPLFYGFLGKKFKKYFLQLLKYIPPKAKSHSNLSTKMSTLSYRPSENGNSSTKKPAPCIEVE", "test": "Receptor binding assay: competition of [^125 I](Sar^1,Ile^8)AngII binding to beef adrenal cortex microsomal membranes", "conditions": "60 min, room temperature, pH 7.4", "excerpt": "Beef adrenals are obtained from a local slaughter house (Maxwell-Cohen). [^125 […]. 2200 Ci/mmole, is purchased from Dupont (KEN@, Boston, Mass.). All unlabeled AngII analogs, Dimethylsulfoxide (DMSO), nucleotides, bovine serum albumin (BBA) are purchased from Sigma Chemical Co., St. Louis, MO U.S.A. Approximately sixteen (16) to twenty (20) beef adrenal glands are processed as follows: fresh adrenal glands received on crushed ice are cleaned of fatty tissues and the tough membranes encapsulating the glands are removed and discarded. The brownish tissue forming the adrenal cortex is scraped off and finely minced with scissors before homogenization care is taken to avoid contamination with medullary tissue during dissection. […] Unless otherwise indicated, all subsequent operations are done at […]. […] The homogenate is centrifuged first at low speed (3,000×g) for 10 min. […] This P2 pellet is discarded and the liquid phase is carefully decanted off in clean centrifuge tubes and recentrifuged at high speed (100,000×g) for 60 min. The translucent final pellet is harvested and combined in a small volume (20-50.0 ml) of […] Tris.HCl buffer, pH 7.2. A 100 ul aliquot is withdrawn and the protein content of the preparation is determined by the Lowry's method (Lowry, O. H., Rosebrough, N. P., Parr, A. L. and Randall, R. J., Protein measurement with Folin phenol reagent. J. Biol. Chem., […], 265-275, 1951). The pelleted membrane is reconstituted in 50.0 mM Tris.HCl buffer containing 0.1 mM of phenylmethylsulfonyl fluoride (PMSF) to give approximately a protein concentration of 2.5 mg per ml of tissue suspension. […] In competition studies, experimental compounds are diluted in dimethylsulfoxide (DMSO) and added in 20 ul to wells before the introduction of tissue membranes. This concentration of DMSO is found to have no negative effects on the binding of [^125 I] ([…] to the membranes. Assays are performed in triplicate. The wells are left undisturbed for 60 min. at room temperature. Following incubation, all wells are harvested at once with a Brandel® Harvester especially designed for a 96 well plate (Brandel® Biomedical Research & Development Labs. Inc., Gaithersburg, MD, U.S.A.). The filter discs are washed with 10×1.0 ml of cold 0.9% NaCl to remove unbound ligand. Presoaking the filter sheet in 0.1% polyethyleneimine in normal saline (PEI/Saline) greatly reduces the radioactivity retained by the filter blanks. This method is routinely used. The filters are removed from the filter grid and counted in a Parkard® Cobra Gamma Counter for 1 min. (Packard Instrument Co., Downers Grove, Ill, U.S.A.). The binding data are analyzed by the non-linear interactive \"LUNDON-11\" program (LUNDON SOFTWARE Inc., Cleveland, OH U.S.A.)."}, "[2]": {"conditions": "AII 0.05 mcg/kg IV, 30 min post dose"}, "[3]": {"conditions": "AII 0.05 mcg/kg IV, 60 min post dose"}, "[4]": {"conditions": "AII 0.05 mcg/kg IV, 90 min post dose"}, "[5]": {"conditions": "AII 0.05 mcg/kg IV, 120 min post dose"}, "[6]": {"conditions": "AII 0.05 mcg/kg IV, 180 min post dose"}, "[7]": {"conditions": "AII 0.1 mcg/kg IV, 30 min post dose"}, "[8]": {"conditions": "AII 0.1 mcg/kg IV, 60 min post dose"}, "[9]": {"conditions": "AII 0.1 mcg/kg IV, 90 min post dose"}, "[10]": {"conditions": "AII 0.1 mcg/kg IV, 120 min post dose"}, "[11]": {"conditions": "AII 0.1 mcg/kg IV, 180 min post dose"}}, "note": "pIC50: −log10 of the molar value. “And” between values parts separate entries of the source, which are not always exact repeats. Identical values can stand only once.", "data": [{"smiles": "CCCCc1nc2ccc(C3CC(C(=O)OCC)=NO3)cc2c(=O)n1Cc1ccc(-c2ccccc2-c2nnn[nH]2)cc1", "note": "(stereo not drawn) [Example 26, Ethyl 5-[2-butyl-3,4-dihydro-4-oxo-3-[[2'-(lH-tetrazol-5-yl)[1,1'-biphenyl]-4-yl]-methyl]-6-cruinazo-linyl]-4,5-dihydro-3-isoxazolecarboxylate]", "values": [{"measurement": "Average Change", "setting": "[1]; [2]", "result": 15, "unit": "mmhg"}, {"measurement": "Inhibition", "setting": "[1]; [2]", "result": 73, "unit": "%"}, {"measurement": "Change", "setting": "[1]; [2]", "result": 15, "unit": "mmhg"}, {"measurement": "Control Before AII", "setting": "[1]; [2]", "result": "180 mmhg and 175 mmhg"}, {"measurement": "Response After AII", "setting": "[1]; [2]", "result": "195 mmhg and 190 mmhg"}, {"measurement": "Average Change", "setting": "[1]; [3]", "result": 10.5, "unit": "mmhg"}, {"measurement": "Inhibition", "setting": "[1]; [3]", "result": 81, "unit": "%"}, {"measurement": "Change", "setting": "[1]; [3]", "result": "20 mmhg and 1 mmhg"}, {"measurement": "Control Before AII", "setting": "[1]; [3]", "result": "175 mmhg and 195 mmhg"}, {"measurement": "Response After AII", "setting": "[1]; [3]", "result": "195 mmhg and 196 mmhg"}, {"measurement": "Average Change", "setting": "[1]; [4]", "result": 17, "unit": "mmhg"}, {"measurement": "Inhibition", "setting": "[1]; [4]", "result": 70, "unit": "%"}, {"measurement": "Change", "setting": "[1]; [4]", "result": "15 mmhg and 19 mmhg"}, {"measurement": "Control Before AII", "setting": "[1]; [4]", "result": "175 mmhg and 165 mmhg"}, {"measurement": "Response After AII", "setting": "[1]; [4]", "result": "190 mmhg and 184 mmhg"}, {"measurement": "Average Change", "setting": "[1]; [5]", "result": 20, "unit": "mmhg"}, {"measurement": "Inhibition", "setting": "[1]; [5]", "result": 64, "unit": "%"}, {"measurement": "Change", "setting": "[1]; [5]", "result": 20, "unit": "mmhg"}, {"measurement": "Control Before AII", "setting": "[1]; [5]", "result": 165, "unit": "mmhg"}, {"measurement": "Response After AII", "setting": "[1]; [5]", "result": 185, "unit": "mmhg"}, {"measurement": "Average Change", "setting": "[1]; [6]", "result": 17.5, "unit": "mmhg"}, {"measurement": "Inhibition", "setting": "[1]; [6]", "result": 69, "unit": "%"}, {"measurement": "Change", "setting": "[1]; [6]", "result": "15 mmhg and 20 mmhg"}, {"measurement": "Control Before AII", "setting": "[1]; [6]", "result": "170 mmhg and 165 mmhg"}, {"measurement": "Response After AII", "setting": "[1]; [6]", "result": 185, "unit": "mmhg"}, {"measurement": "Average Change", "setting": "[1]; [7]", "result": 11, "unit": "mmhg"}, {"measurement": "Inhibition", "setting": "[1]; [7]", "result": 79, "unit": "%"}, {"measurement": "Change", "setting": "[1]; [7]", "result": "7 mmhg and 15 mmhg"}, {"measurement": "Control Before AII", "setting": "[1]; [7]", "result": "185 mmhg and 170 mmhg"}, {"measurement": "Response After AII", "setting": "[1]; [7]", "result": "192 mmhg and 185 mmhg"}, {"measurement": "Average Change", "setting": "[1]; [8]", "result": 12.5, "unit": "mmhg"}, {"measurement": "Inhibition", "setting": "[1]; [8]", "result": 77, "unit": "%"}, {"measurement": "Change", "setting": "[1]; [8]", "result": "15 mmhg and 10 mmhg"}, {"measurement": "Control Before AII", "setting": "[1]; [8]", "result": "180 mmhg and 175 mmhg"}, {"measurement": "Response After AII", "setting": "[1]; [8]", "result": "195 mmhg and 185 mmhg"}, {"measurement": "Average Change", "setting": "[1]; [9]", "result": 15, "unit": "mmhg"}, {"measurement": "Inhibition", "setting": "[1]; [9]", "result": 72, "unit": "%"}, {"measurement": "Change", "setting": "[1]; [9]", "result": 15, "unit": "mmhg"}, {"measurement": "Control Before AII", "setting": "[1]; [9]", "result": "185 mmhg and 175 mmhg"}, {"measurement": "Response After AII", "setting": "[1]; [9]", "result": "200 mmhg and 190 mmhg"}, {"measurement": "Average Change", "setting": "[1]; [10]", "result": 18.5, "unit": "mmhg"}, {"measurement": "Inhibition", "setting": "[1]; [10]", "result": 65, "unit": "%"}, {"measurement": "Change", "setting": "[1]; [10]", "result": "17 mmhg and 20 mmhg"}, {"measurement": "Control Before AII", "setting": "[1]; [10]", "result": "175 mmhg and 165 mmhg"}, {"measurement": "Response After AII", "setting": "[1]; [10]", "result": "192 mmhg and 185 mmhg"}, {"measurement": "Average Change", "setting": "[1]; [11]", "result": 38.5, "unit": "mmhg"}, {"measurement": "Inhibition", "setting": "[1]; [11]", "result": 28, "unit": "%"}, {"measurement": "Change", "setting": "[1]; [11]", "result": "37 mmhg and 40 mmhg"}, {"measurement": "Control Before AII", "setting": "[1]; [11]", "result": "170 mmhg and 165 mmhg"}, {"measurement": "Response After AII", "setting": "[1]; [11]", "result": "207 mmhg and 205 mmhg"}, {"measurement": "pIC50", "setting": "Angiotensin II Receptor", "result": 7.52}]}]}
